# Source: patent US9738634B2, “Heterocyclic amide compound and herbicide” (SYNGENTA PARTICIPATIONS AG, priority 2013, dated 2017)
# How the values were obtained:
# Format in all cases: in vivo
# Details in all cases: treatment dosage 320 g/ha
# [1] = system: crabgrass; test: Test Example 3: weedkilling efficacy through soil treatment; D: crabgrass
# Method in brief: (§1)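 Crop and weed responses were judged three weeks after a uniform surface spray of the water-diluted emulsion at the given g/ha rate. Seeds sat beneath about 1.5 cm of sterilized diluvial soil, and boxes stood in a greenhouse at 25 to 30° C.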
# [2] = system: green foxtail; test: Test Example 3: weedkilling efficacy through soil treatment; E: green foxtail
# Method in brief: as §1
# [3] = system: barnyard grass; test: Test Example 3: weedkilling efficacy through soil treatment; F: barnyard grass
# Method in brief: as §1
# [4] = system: wild oat; test: Test Example 3: weedkilling efficacy through soil treatment; G: wild oat
# Method in brief: as §1
# [5] = system: black-grass; test: Test Example 3: weedkilling efficacy through soil treatment; H: black-grass
# Method in brief: as §1
# [6] = system: Italian ryegrass; test: Test Example 3: weedkilling efficacy through soil treatment; I: Italian ryegrass
# Method in brief: as §1
# [7] = system: common wind-grass; test: Test Example 3: weedkilling efficacy through soil treatment; J: common wind-grass
# Method in brief: as §1
# [8] = system: Indian mallow; test: Test Example 3: weedkilling efficacy through soil treatment; K: Indian mallow
# Method in brief: as §1
# [9] = system: redroot pigweed; test: Test Example 3: weedkilling efficacy through soil treatment; L: redroot pigweed
# Method in brief: as §1
# [10] = system: fig-leafed goosefoot; test: Test Example 3: weedkilling efficacy through soil treatment; M: fig-leafed goosefoot
# Method in brief: as §1
# [11] = system: chickweed; test: Test Example 3: weedkilling efficacy through soil treatment; N: chickweed
# Method in brief: as §1
# [12] = system: catchweed; test: Test Example 3: weedkilling efficacy through soil treatment; O: catchweed
# Method in brief: as §1
# [13] = system: birds-eye speedwell; test: Test Example 3: weedkilling efficacy through soil treatment; p: birds-eye speedwell
# Method in brief: as §1
# [14] = system: directly sown rice; test: Test Example 3: soil treatment, effect on crop; b: directly sown rice
# Method in brief: as §1
# [15] = system: corn; test: Test Example 3: soil treatment, effect on crop; c: corn
# Method in brief: as §1
# [16] = system: soybean; test: Test Example 3: soil treatment, effect on crop; d: soybean
# Method in brief: as §1
# [17] = system: wheat; test: Test Example 3: soil treatment, effect on crop; e: wheat
# Method in brief: as §1
# [18] = system: rapeseed; test: Test Example 3: soil treatment, effect on crop; g: rapeseed
# Method in brief: as §1
# [19] = system: crabgrass; test: Test Example 4: weedkilling efficacy by foliar treatment; D: crabgrass
# Method in brief: (§2)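 Seeds are spot-sown into sterilized diluvial soil and covered with about 1.5 cm of soil. After 14 days' greenhouse growth at 25 to 30° C, plants are sprayed on stems and leaves with diluted emulsion at the stated g/ha rate, then scored at 3 weeks.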
# [20] = system: green foxtail; test: Test Example 4: weedkilling efficacy by foliar treatment; E: green foxtail
# Method in brief: as §2
# [21] = system: barnyard grass; test: Test Example 4: weedkilling efficacy by foliar treatment; F: barnyard grass
# Method in brief: as §2
# [22] = system: wild oat; test: Test Example 4: weedkilling efficacy by foliar treatment; G: wild oat
# Method in brief: as §2
# [23] = system: black-grass; test: Test Example 4: weedkilling efficacy by foliar treatment; H: black-grass
# Method in brief: as §2
# [24] = system: Italian ryegrass; test: Test Example 4: weedkilling efficacy by foliar treatment; I: Italian ryegrass
# Method in brief: as §2
# [25] = system: common wind-grass; test: Test Example 4: weedkilling efficacy by foliar treatment; J: common wind-grass
# Method in brief: as §2
# [26] = system: Indian mallow; test: Test Example 4: weedkilling efficacy by foliar treatment; K: Indian mallow
# Method in brief: as §2
# [27] = system: redroot pigweed; test: Test Example 4: weedkilling efficacy by foliar treatment; L: redroot pigweed
# Method in brief: as §2
# [28] = system: fig-leafed goosefoot; test: Test Example 4: weedkilling efficacy by foliar treatment; M: fig-leafed goosefoot
# Method in brief: as §2
# [29] = system: chickweed; test: Test Example 4: weedkilling efficacy by foliar treatment; N: chickweed
# Method in brief: as §2
# [30] = system: catchweed; test: Test Example 4: weedkilling efficacy by foliar treatment; O: catchweed
# Method in brief: as §2
# [31] = system: directly sown rice; test: Test Example 4: foliar treatment, effect on crop; b: directly sown rice
# Method in brief: as §2
# [32] = system: corn; test: Test Example 4: foliar treatment, effect on crop; c: corn
# Method in brief: as §2
# [33] = system: soybean; test: Test Example 4: foliar treatment, effect on crop; d: soybean
# Method in brief: as §2
# [34] = system: wheat; test: Test Example 4: foliar treatment, effect on crop; e: wheat
# Method in brief: as §2
# [35] = system: beet; test: Test Example 4: foliar treatment, effect on crop; f: beet
# Method in brief: as §2
# [36] = system: rapeseed; test: Test Example 4: foliar treatment, effect on crop; g: rapeseed
# Method in brief: as §2
compound,measurement,setting,value
CC1=C(c2cccnc2F)C(=O)N(C(C)(C)C(=O)Nc2cc(Cl)cc(Cl)n2)CO1 [B-2-11],D (crabgrass) weedkilling efficacy grade,[1],"5 (weed kill ratio 90% or more, (practically complete withering))"
same,E (green foxtail) weedkilling efficacy grade,[2],"5 (weed kill ratio 90% or more, (practically complete withering))"
same,F (barnyard grass) weedkilling efficacy grade,[3],"5 (weed kill ratio 90% or more, (practically complete withering))"
same,G (wild oat) weedkilling efficacy grade,[4],"3 (weed kill ratio 40% or more, less than 70%)"
same,H (black-grass) weedkilling efficacy grade,[5],"5 (weed kill ratio 90% or more, (practically complete withering))"
same,I (Italian ryegrass) weedkilling efficacy grade,[6],"5 (weed kill ratio 90% or more, (practically complete withering))"
same,J (common wind-grass) weedkilling efficacy grade,[7],"5 (weed kill ratio 90% or more, (practically complete withering))"
same,K (Indian mallow) weedkilling efficacy grade,[8],0 (weed kill ratio 5% or less (practically no effect))
same,L (redroot pigweed) weedkilling efficacy grade,[9],0 (weed kill ratio 5% or less (practically no effect))
same,M (fig-leafed goosefoot) weedkilling efficacy grade,[10],"4 (weed kill ratio 70% or more, less than 90%)"
same,N (chickweed) weedkilling efficacy grade,[11],"4 (weed kill ratio 70% or more, less than 90%)"
same,O (catchweed) weedkilling efficacy grade,[12],"3 (weed kill ratio 40% or more, less than 70%)"
same,P (birds-eye speedwell) weedkilling efficacy grade,[13],"5 (weed kill ratio 90% or more, (practically complete withering))"
same,b (directly sown rice) effect on crop grade,[14],"3 (weed kill ratio 40% or more, less than 70%)"
same,c (corn) effect on crop grade,[15],"1 (weed kill ratio 5% or more, less than 20%)"
same,d (soybean) effect on crop grade,[16],0 (weed kill ratio 5% or less (practically no effect))
same,e (wheat) effect on crop grade,[17],0 (weed kill ratio 5% or less (practically no effect))
same,g (rapeseed) effect on crop grade,[18],"1 (weed kill ratio 5% or more, less than 20%)"
same,D (crabgrass) weedkilling efficacy grade,[19],"5 (weed kill ratio 90% or more, (practically complete withering))"
same,E (green foxtail) weedkilling efficacy grade,[20],"5 (weed kill ratio 90% or more, (practically complete withering))"
same,F (barnyard grass) weedkilling efficacy grade,[21],"5 (weed kill ratio 90% or more, (practically complete withering))"
same,G (wild oat) weedkilling efficacy grade,[22],"4 (weed kill ratio 70% or more, less than 90%)"
same,H (black-grass) weedkilling efficacy grade,[23],"5 (weed kill ratio 90% or more, (practically complete withering))"
same,I (Italian ryegrass) weedkilling efficacy grade,[24],"5 (weed kill ratio 90% or more, (practically complete withering))"
same,J (common wind-grass) weedkilling efficacy grade,[25],"5 (weed kill ratio 90% or more, (practically complete withering))"
same,K (Indian mallow) weedkilling efficacy grade,[26],"5 (weed kill ratio 90% or more, (practically complete withering))"
same,L (redroot pigweed) weedkilling efficacy grade,[27],"4 (weed kill ratio 70% or more, less than 90%)"
same,M (fig-leafed goosefoot) weedkilling efficacy grade,[28],"5 (weed kill ratio 90% or more, (practically complete withering))"
same,N (chickweed) weedkilling efficacy grade,[29],"4 (weed kill ratio 70% or more, less than 90%)"
same,O (catchweed) weedkilling efficacy grade,[30],"4 (weed kill ratio 70% or more, less than 90%)"
same,b (directly sown rice) effect on crop grade,[31],"3 (weed kill ratio 40% or more, less than 70%)"
same,c (corn) effect on crop grade,[32],"5 (weed kill ratio 90% or more, (practically complete withering))"
same,d (soybean) effect on crop grade,[33],"4 (weed kill ratio 70% or more, less than 90%)"
same,e (wheat) effect on crop grade,[34],0 (weed kill ratio 5% or less (practically no effect))
same,f (beet) effect on crop grade,[35],"4 (weed kill ratio 70% or more, less than 90%)"
same,g (rapeseed) effect on crop grade,[36],"4 (weed kill ratio 70% or more, less than 90%)"
